{
  "source": "patent US12378198B2",
  "about": "“Crystalline l-arginine salt of (R)-2-(7-(4-cyclopentyl-3-(trifluoromethyl)benzyloxy)-1,2,3,4-tetrahydrocyclo-penta [b]indol-3-yl)acetic acid(compound1) for use in SIPI receptor-associated disorders” (Arena Pharmaceuticals, Inc., priority 2015, dated 2025)",
  "key": {"[1]": {"biological_target": "S1P2 (Homo sapiens, UniProt O95136)", "sequence (O95136 whole entry, species assumed)": "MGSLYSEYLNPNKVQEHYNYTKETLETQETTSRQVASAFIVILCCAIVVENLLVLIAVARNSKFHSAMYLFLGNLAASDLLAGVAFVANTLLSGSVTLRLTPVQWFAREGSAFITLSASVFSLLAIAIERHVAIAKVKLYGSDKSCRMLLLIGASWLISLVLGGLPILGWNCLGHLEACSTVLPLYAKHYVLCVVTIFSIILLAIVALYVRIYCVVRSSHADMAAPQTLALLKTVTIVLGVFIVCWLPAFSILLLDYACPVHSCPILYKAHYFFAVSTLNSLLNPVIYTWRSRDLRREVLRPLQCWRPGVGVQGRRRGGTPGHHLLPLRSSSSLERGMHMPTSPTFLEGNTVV", "conditions": "read-out: EC50 β-arrestin; cited from earlier work"}, "[2]": {"conditions": "human; cited from earlier work"}, "[3]": {"test_system": "lymphocyte", "conditions": "monkey; reflects total plasma concentration; read-out: calculated lymphocyte lowering IC50; cited from earlier work"}, "[4]": {"test_system": "lymphocyte", "conditions": "dog; reflects total plasma concentration; read-out: calculated lymphocyte lowering IC50; cited from earlier work"}, "[5]": {"test_system": "collagen induced arthritis (CIA) model", "conditions": "cited from earlier work"}, "[6]": {"test_system": "lymphocyte", "conditions": "rat; reflects total plasma concentration; read-out: calculated lymphocyte lowering IC50; cited from earlier work"}, "[7]": {"test_system": "experimental autoimmune encephalomyelitis (EAE) model", "conditions": "cited from earlier work"}, "[8]": {"biological_target": "S1P3 (Homo sapiens, UniProt Q99500)", "sequence (Q99500 whole entry, species assumed)": "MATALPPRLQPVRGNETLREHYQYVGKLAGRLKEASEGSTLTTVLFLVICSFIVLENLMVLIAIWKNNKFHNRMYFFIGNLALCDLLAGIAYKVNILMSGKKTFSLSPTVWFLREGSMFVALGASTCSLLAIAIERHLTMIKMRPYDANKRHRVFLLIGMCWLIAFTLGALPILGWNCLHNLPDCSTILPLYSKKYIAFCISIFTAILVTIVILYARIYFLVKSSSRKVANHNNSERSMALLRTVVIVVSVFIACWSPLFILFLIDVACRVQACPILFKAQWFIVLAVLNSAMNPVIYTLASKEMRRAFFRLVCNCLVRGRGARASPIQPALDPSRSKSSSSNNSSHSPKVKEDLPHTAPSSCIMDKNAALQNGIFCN", "conditions": "read-out: EC50 β-arrestin; cited from earlier work"}, "[9]": {"conditions": "rat; cited from earlier work"}, "[10]": {"test_system": "lymphocyte", "conditions": "mouse; reflects total plasma concentration; read-out: calculated lymphocyte lowering IC50; cited from earlier work"}, "[11]": {"test_system": "lymphocyte count", "assay": "Phase 1b clinical trial, lymphocyte count lowering in blood", "assay_type": "in vivo, healthy volunteers", "procedure": "The L-arginine salt of Compound 1 was selected for clinical evaluation. A randomized, double-blind, placebo-controlled Phase 1b clinical trial was conducted to evaluate the safety, tolerability, pharmacodynamics, and pharmacokinetics of multiple-ascending doses of the L-arginine salt of Compound 1 in five different dosing cohorts. A total of 50 healthy volunteers received the L-arginine salt of Compound 1 and 10 healthy volunteers received placebo for 21 days."}, "[12]": {"assay": "BET specific surface area, nitrogen adsorption", "assay_type": "physicochemical", "conditions": "N2 adsorption at 77.3 K, eleven point method, P/P0 about 0.05 to about 0.3, degassed at 25° C. for 960 minutes", "text": "In addition to the techniques described herein, specific surface can also be used to characterize the free-plates of the present invention. Accordingly, the specific surface area values disclosed in the present invention have been obtained by means of a specific surface area analysis technique based on the BET (Brunauer, Emmett and Teller) theory, which is a well-accepted theory known in the art for the calculation of surface areas of solids by means of measuring their physical adsorption of gas molecules (see: Brunauer, S.; Emmett, P. H.; and Teller, E.; J. Am. Chem. Soc., 1938, 60, 309). In particular, the specific surface area values measured in the present invention have been calculated from the BET surface area plot obtained by measuring the quantity of nitrogen gas molecules adsorbed by a weighted amount of solid at different relative pressures (P/P0) within the range 0.05-0.3 (P/P0), at 77.3 K. The measurement of the adsorption of gas molecules was carried out by means of a Micromeritics™ TriStar II BET surface analyzer having the characteristics as set out below in Example 14. Namely, nitrogen gas was used for the adsorption measurement. The sample for each analysis was degassed at 25° C. for 960 minutes under vacuum (i.e., 100 mm/Hg). The determination of the adsorption of nitrogen was measured at 77.3 K at eleven relative pressures (P/P0) sufficiently dispersed within the range of about 0.05 to about 0.30 (i.e. eleven absolute pressures in the range of about 36 mm Hg to about 223 mm Hg relative to the saturated pressure at the time of measurement that ranged from about 738 mmHg to about 743 mmHg).\nIn general, the specific surface areas for Lots A1-A9 (plates) and H1-H6 (spherulites) were determined by physical adsorption of nitrogen gas on the surface of the sample from each lot using the well-established technique based on the Brunauer, Emmett, and Teller theory.\nThe BET surface areas for the samples were measured by Micromeritics Pharmaceutical Services using a Micromeritics™ TriStar II BET surface area analyzer (MicroActive for TriStar II Plus 2.02 Software™). The samples were degassed at 25° C. for 960 minutes under vacuum (i.e., 100 mm/Hg). The determination of the adsorption of N2 at 77.3 K was measured using a BET surface area eleven point method with relative pressures in the range of about 0.05 to about 0.3 (P/P0) for a weighed amount of each sample, see TABLE M1, TABLE M2, and TABLE N below. The analysis was performed per ISO9277."}, "[13]": {"assay": "Dynamic moisture-sorption (DMS) analysis", "assay_type": "physicochemical", "conditions": "DMS at 25° C.", "procedure": "A dynamic moisture-sorption (DMS) analysis was performed on representative Lot A2 (see, Example 3, TABLE A) of the L-arginine salt of Compound 1 having the plate morphology and representative Lot H2 (prepared in a similar manner as described in Example 8, Method 2 Steps G and H in WO2011/094008; and described in TABLE K, Example 8 herein) of the L-arginine salt of Compound 1 having the spherulite morphology. […] By comparison the L-arginine salt of Compound 1 (spherulite morphology) gained between 0.5% weight (adsorption cycle) and 0.7% weight (desorption cycle) at 90% RH and 25° C. […] DMS analysis was performed using a TA Instruments Q5000 SA (EQ2418). Instrument performance was verified in-house. Samples were added to a tared sample holder on the Q5000 SA balance. The sample was dried at 40° C. and then analyzed at 25° C. with an adsorption phase from 30% RH to 90% RH and a desorption phase from 90% RH to 10% RH."}},
  "note": "Structures can show the parent of a compound that is named as a salt. Where two headings read alike, the source gives them in different places.",
  "data": [
    {"compound": "O=C(O)C[C@H]1CCc2c1[nH]c1ccc(OCc3ccc(C4CCCC4)c(C(F)(F)F)c3)cc21", "note": "[Compound 1, (R)-2-(7-(4-cyclopentyl-3-(trifluoromethyl)benzyloxy)-1,2,3,4-tetrahydrocyclopenta[b]indol-3-yl)acetic acid]", "values": [
      {"measurement": "EC50", "setting": "[1]", "result": "> 10", "unit": "µM"},
      {"measurement": "protein bound", "setting": "[2]", "result": 97.8, "unit": "%"},
      {"measurement": "IC50", "setting": "[3]", "result": 0.098, "unit": "µM"},
      {"measurement": "IC50", "setting": "[4]", "result": 0.058, "unit": "µM"},
      {"measurement": "histological parameters in knees and ankles", "setting": "[5]; CIA rats", "result": "Improvement in histological parameters in the knees and ankles"},
      {"measurement": "ankle diameters", "setting": "[5]; prophylactic daily oral dose, day 17, similar to fingolimod or methotrexate", "result": "significant reduction in ankle diameters"},
      {"measurement": "IC50", "setting": "[6]", "result": 0.051, "unit": "µM"},
      {"measurement": "EAE disease, therapeutic administration", "setting": "[7]; administered day 18 to day 37, all animals with severe disease at start, similar to fingolimod", "result": "reverse the disease relative to vehicle"},
      {"measurement": "EAE disease onset and severity, prophylactic", "setting": "[7]; prophylactic dosing, discontinued at day 25, relative to vehicle", "result": "prevented the onset and severity of disease relative to vehicle up to day 25"},
      {"measurement": "EC50", "setting": "[8]", "result": "> 10", "unit": "µM"},
      {"measurement": "protein bound", "setting": "[9]", "result": 98.0, "unit": "%"},
      {"measurement": "IC50", "setting": "[10]", "result": 0.101, "unit": "µM"}
    ]},
    {"compound": "O=C(O)C[C@H]1CCc2c1[nH]c1ccc(OCc3ccc(C4CCCC4)c(C(F)(F)F)c3)cc21", "note": "[L-arginine salt of Compound 1, L-arginine salt of (R)-2-(7-(4-cyclopentyl-3-(trifluoromethyl)benzyloxy)-1,2,3,4-tetrahydrocyclo-penta[b]indol-3-yl)acetic acid]", "values": [
      {"measurement": "lymphocyte count, mean decrease from baseline", "setting": "[11]; multiple-ascending doses for 21 days, dose-dependent", "result": "up to 69%"},
      {"measurement": "lymphocyte count recovery to baseline", "setting": "[11]; on average, after conclusion of dosing", "result": "within one week"}
    ]},
    {"compound": "O=C(O)C[C@H]1CCc2c1[nH]c1ccc(OCc3ccc(C4CCCC4)c(C(F)(F)F)c3)cc21", "note": "[Lot A1]", "values": [
      {"measurement": "BET Surface Area", "setting": "[12]; listed as A1", "result": 0.7, "unit": "m^2/g"}
    ]},
    {"compound": "O=C(O)C[C@H]1CCc2c1[nH]c1ccc(OCc3ccc(C4CCCC4)c(C(F)(F)F)c3)cc21", "note": "[Lot A2]", "values": [
      {"measurement": "hygroscopicity", "setting": "[13]", "result": "non-hygroscopic"},
      {"measurement": "weight gain at 90% RH", "setting": "[13]; 90% RH", "result": 0.2, "unit": "% weight"},
      {"measurement": "BET Surface Area", "setting": "[12]; listed as A2", "result": 0.7, "unit": "m^2/g"}
    ]},
    {"compound": "O=C(O)C[C@H]1CCc2c1[nH]c1ccc(OCc3ccc(C4CCCC4)c(C(F)(F)F)c3)cc21", "note": "[Lot A3]", "values": [
      {"measurement": "BET Surface Area", "setting": "[12]; listed as A3", "result": 1.5, "unit": "m^2/g"}
    ]},
    {"compound": "O=C(O)C[C@H]1CCc2c1[nH]c1ccc(OCc3ccc(C4CCCC4)c(C(F)(F)F)c3)cc21", "note": "[Lot A4]", "values": [
      {"measurement": "BET Surface Area", "setting": "[12]; listed as A4", "result": 1.0, "unit": "m^2/g"}
    ]},
    {"compound": "O=C(O)C[C@H]1CCc2c1[nH]c1ccc(OCc3ccc(C4CCCC4)c(C(F)(F)F)c3)cc21", "note": "[Lot A5]", "values": [
      {"measurement": "BET Surface Area", "setting": "[12]; listed as A5", "result": 0.8, "unit": "m^2/g"}
    ]},
    {"compound": "O=C(O)C[C@H]1CCc2c1[nH]c1ccc(OCc3ccc(C4CCCC4)c(C(F)(F)F)c3)cc21", "note": "[Lot A6]", "values": [
      {"measurement": "BET Surface Area", "setting": "[12]; listed as A6", "result": 2.4, "unit": "m^2/g"}
    ]},
    {"compound": "O=C(O)C[C@H]1CCc2c1[nH]c1ccc(OCc3ccc(C4CCCC4)c(C(F)(F)F)c3)cc21", "note": "[Lot A7]", "values": [
      {"measurement": "BET Surface Area", "setting": "[12]; listed as A7", "result": 1.9, "unit": "m^2/g"}
    ]},
    {"compound": "O=C(O)C[C@H]1CCc2c1[nH]c1ccc(OCc3ccc(C4CCCC4)c(C(F)(F)F)c3)cc21", "note": "[Lot A8]", "values": [
      {"measurement": "BET Surface Area", "setting": "[12]; listed as A8", "result": 3.0, "unit": "m^2/g"}
    ]},
    {"compound": "O=C(O)C[C@H]1CCc2c1[nH]c1ccc(OCc3ccc(C4CCCC4)c(C(F)(F)F)c3)cc21", "note": "[Lot A9]", "values": [
      {"measurement": "BET Surface Area", "setting": "[12]; listed as A9", "result": 3.1, "unit": "m^2/g"}
    ]},
    {"compound": "O=C(O)C[C@H]1CCc2c1[nH]c1ccc(OCc3ccc(C4CCCC4)c(C(F)(F)F)c3)cc21", "note": "[Lot H1]", "values": [
      {"measurement": "BET Surface Area", "setting": "[12]; listed as H1", "result": 10.0, "unit": "m^2/g"}
    ]},
    {"compound": "O=C(O)C[C@H]1CCc2c1[nH]c1ccc(OCc3ccc(C4CCCC4)c(C(F)(F)F)c3)cc21", "note": "[Lot H2]", "values": [
      {"measurement": "weight gain at 90% RH (adsorption cycle)", "setting": "[13]; 90% RH, adsorption cycle", "result": 0.5, "unit": "% weight"},
      {"measurement": "weight gain at 90% RH (desorption cycle)", "setting": "[13]; 90% RH, desorption cycle", "result": 0.7, "unit": "% weight"},
      {"measurement": "BET Surface Area", "setting": "[12]; listed as H2", "result": 13.5, "unit": "m^2/g"}
    ]},
    {"compound": "O=C(O)C[C@H]1CCc2c1[nH]c1ccc(OCc3ccc(C4CCCC4)c(C(F)(F)F)c3)cc21", "note": "[Lot H3]", "values": [
      {"measurement": "BET Surface Area", "setting": "[12]; listed as H3", "result": 11.8, "unit": "m^2/g"}
    ]},
    {"compound": "O=C(O)C[C@H]1CCc2c1[nH]c1ccc(OCc3ccc(C4CCCC4)c(C(F)(F)F)c3)cc21", "note": "[Lot H4]", "values": [
      {"measurement": "BET Surface Area", "setting": "[12]; listed as H4", "result": 12.0, "unit": "m^2/g"}
    ]},
    {"compound": "O=C(O)C[C@H]1CCc2c1[nH]c1ccc(OCc3ccc(C4CCCC4)c(C(F)(F)F)c3)cc21", "note": "[Lot H5]", "values": [
      {"measurement": "BET Surface Area", "setting": "[12]; listed as H5", "result": 10.9, "unit": "m^2/g"}
    ]},
    {"compound": "O=C(O)C[C@H]1CCc2c1[nH]c1ccc(OCc3ccc(C4CCCC4)c(C(F)(F)F)c3)cc21", "note": "[Lot H6]", "values": [
      {"measurement": "BET Surface Area", "setting": "[12]; listed as H6", "result": 12.3, "unit": "m^2/g"}
    ]}
  ]
}
